Measured values taken from the METLIN SMRT retention time set (Domingo-Almenara et al. 2019).

Experiment: gradient 5% acetonitrile 3 min, to 50% in 2 min, to 85% in 15 min, held 3 min, 100 µL/min
Conditions: column: Zorbax Extend-C18 2.1 x 50 mm; eluents: water / acetonitrile, 0.1% formic acid
Procedure, shortened: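 Using water and acetonitrile that each contained 0.1% formic acid, mixtures of ~100 pure standards were separated at 100 μL/min on a Zorbax Extend-C18 column (2.1 × 50 mm, 1.8 μm). The HPLC fed a quadrupole time-of-flight mass spectrometer working in positive and negative ionization mode, with dead and dwell volumes of 40 μL and 900 μL. Data were acquired over 3 months. Retention time was read from computationally picked adduct peaks after manual inspection of each.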

| RP-LC retention time [s] | Compound |
| --- | --- |
| 834 | CCCC(=O)N1CCCN(C2=NS(=O)(=O)C(c3ccc(Cl)cc3)=C2C)CC1 |
| 583 | CN(C)CCSc1ncccc1C(=O)NCc1cccs1 |
| 1230 | Cc1ccc(-c2noc(C3CCCN3S(=O)(=O)c3ccc(Br)cc3)n2)cc1 (stereo unspecified) |
| 906 | CCn1c(C2CCN(S(=O)(=O)c3ccc(C(C)C)cc3)C2)nc2cccnc21 (stereo unspecified) |
| 858 | Cc1ccc(NS(=O)(=O)c2ccc([N+](=O)[O-])cc2)c(-c2nc3ccccc3[nH]c2=O)c1 |
| 693 | Cc1nc(-c2ccc(C(=O)NC(C)C)cc2)no1 |
| 1230 | Cc1ccc(-c2noc(-c3ccc(=O)n(Cc4ccc(Cl)cc4)c3)n2)cc1 |
| 1290 | CCCCCn1c(=O)c2ccccc2n(Cc2nc(-c3ccc(F)c(Cl)c3)no2)c1=O |
| 1090 | CC1CCCN(c2ccc(-c3noc(CN4CCN(c5ccccc5F)CC4)n3)cn2)C1 (stereo unspecified) |
| 911 | CC(C)NC(=O)Cn1nc2c3cc(-c4ccc(C(C)C)cc4)nn3ccn2c1=O |
| 597 | COc1ccc(-c2nc3cc(C)ccn3c2NC(=O)c2ccc(F)cc2)cc1OC |
| 1090 | CCOc1ccc(-c2ccc(=O)n(Cc3nc(-c4ccc(F)cc4)no3)n2)cc1 |
| 1000 | O=c1ccc(-c2cccc(Cl)c2)nn1Cc1nc(-c2cccs2)no1 |
| 587 | CN(Cc1nc2ccccc2n1CC(=O)N1CCOCC1)C(=O)c1ccco1 |
| 1270 | Cc1oc2ccn(Cc3cccc(F)c3)c(=O)c2c1C(=O)NC1CCCCCC1 |
| 1260 | CCOc1ccc(NC(=O)Cc2c(C)nn(-c3nc(-c4ccc(Cl)cc4)cs3)c2C)cc1 |
| 743 | CCc1ccc(NC(=O)Cn2cnc3nc(N4CCCC(C(=O)NC5CC5)C4)sc3c2=O)cc1 (stereo unspecified) |
| 870 | O=C(Nc1ccc2c(c1)OCCO2)c1noc2c1CCCC2 |
| 855 | COc1cccc(CNC(=O)C2(C)CCCN(C(=O)NCCc3ccccc3)C2)c1 (stereo unspecified) |
| 695 | Cc1cccc(NS(=O)(=O)c2cc3n(c2)CCCN(C)C3=O)c1 |
| 954 | CC(C)c1ccc(S(=O)(=O)NCc2ccsc2)cc1 |
| 606 | CCCc1cc(N2CCN(C(=O)c3cccc(N(C)C)c3)CC2)nc2nnc(C)n12 |
| 600 | NC(=O)Cc1csc(NC(=O)COc2ccc3c(c2)C(=O)CC3)n1 |
| 1070 | COc1cccc(C2Cn3nnc(-c4nc(-c5ccsc5)no4)c3CO2)c1 (stereo unspecified) |
| 1210 | CCc1ccc(-n2ncc3c(=O)n(Cc4nc(-c5cccc(C)c5)no4)cnc32)cc1 |
| 908 | CN(CCc1noc(-c2ccc(Cl)cc2)n1)C(=O)c1ccc(C#N)cc1 |
| 585 | Cn1nc(C(=O)Nc2onc3c2CSC3)ccc1=O |

| RP-LC retention time [s] | Compound |
| --- | --- |
| 959 | CCc1nc(-c2cc(S(=O)(=O)NCC(=O)N3CCN(c4ccc(F)cc4)CC3)c(C)s2)no1 |
| 865 | COc1cc(NC(=O)N2CCCC2c2ccccc2C)cc(OC)c1OC (stereo unspecified) |
| 726 | CN(C)c1ccc(-c2nc3ncccn3c2NCc2ccccc2)cc1 |
| 587 | CNC(=O)[C@@H]1CCCN1C(=O)c1ccccc1 |
| 639 | Cc1ccc(-c2nc3n(c2CNC(=O)c2ccco2)CCS3)cc1 |
| 606 | Cc1cccc2c(C(=O)NC3CC3)c3c(nc12)CCC3 |
| 646 | C=CCNC(=O)c1cn(-c2cc(-c3nc(CC)no3)ccn2)cn1 |
| 880 | CCn1nnc2cc(-c3noc(C4CC(=O)N(c5ccc(C)cc5)C4)n3)ccc21 (stereo unspecified) |
| 917 | Cc1ccccc1C(=O)Nc1nnc(SCc2nnc(-c3ccccc3)o2)s1 |
| 776 | CCn1c(N2CCCC(C(=O)NCc3ccccc3F)C2)cc(=O)n(C)c1=O (stereo unspecified) |
| 579 | O=C(NCc1ccccn1)C(=O)Nc1ccc2c(c1)OCO2 |
| 904 | COc1ccc(-c2nnc(-c3ccc(Cl)c(S(=O)(=O)N(C)C)c3)o2)cc1OC |
| 705 | CCCNC(=O)C1CCCN(c2ccc(SCC(=O)Nc3ccccc3C(=O)OC)nn2)C1 (stereo unspecified) |
| 952 | COc1ccc(-c2noc(C3CCCN3C(=O)Nc3ccc(OC)cc3OC)n2)cc1 (stereo unspecified) |
| 1110 | CN(CC1CCCO1)c1nc(-c2ccc([N+](=O)[O-])cc2)cs1 (stereo unspecified) |
| 695 | Cn1cnc(S(=O)(=O)N2CCC(C(=O)NCc3ccccc3Cl)CC2)c1 |
| 1030 | Cc1sc(-c2noc(C(C)C)n2)cc1S(=O)(=O)N1CCC(C(=O)NCc2cccs2)CC1 |
| 595 | Cc1nc(-c2csc(S(=O)(=O)N3CCC(C(=O)N4CCc5ccccc54)CC3)c2)no1 |
| 563 | O=C(NCc1ccccn1)C(=O)NCC1OCCN1S(=O)(=O)c1cccs1 (stereo unspecified) |
| 655 | O=C(NCc1nc(-c2ccc3c(c2)ncn3C2CCCC2)no1)c1ccco1 |
| 863 | CCn1cnc2ccc(-c3noc(-c4ccc(Cl)cc4)n3)cc21 |
| 712 | CCOc1ccc(OC(=O)C2CCN(c3nc4ccccc4[nH]3)CC2)cc1 |
| 851 | Cc1cc(C2CCCN2C(=O)Cc2ccc(F)cc2Cl)on1 (stereo unspecified) |
| 935 | CCc1nc(-c2csc(S(=O)(=O)N3CCC(C(=O)NCc4ccc(F)cc4)CC3)c2)no1 |
| 559 | Cc1ccc(Oc2cccc(C(N)=O)c2)nn1 |
| 743 | Cc1nn2c(CNC(=O)C3CCC3)c(-c3ccccc3)nc2s1 |
| 810 | Cc1ccccc1OCC(=O)Nc1cnn(C)c(=O)c1N1CCOCC1 |

Second part, the molecule before the results:

| Compound | RP-LC retention time [s] |
| --- | --- |
| CCCN1CCN(CCCNC(=O)C(C)n2c(=O)c(C(F)(F)F)nc3ccccc32)CC1 (stereo unspecified) | 622 |
| CCOCCCNC(=O)c1c(N2CCCC2=O)c2cc(OC)ccc2n1CC | 761 |
| Cc1cc(C)n2ncc(-c3ccc(C)c(S(=O)(=O)NCc4ccc(F)cc4Cl)c3)c2n1 | 1080 |
| O=C(Nc1ccc(N2CCN(C3CCCCC3)C2=O)nc1)c1cc(F)cc(F)c1 | 1020 |
| CCOc1cc(=O)n2c(c1C(=O)Nc1cccc(SC)c1)CCCC2 | 767 |
| O=C(NCc1ccc(C(F)(F)F)cc1)c1c(O)c2cccnc2n(-c2ccccc2)c1=O | 1230 |
| COCC1CN(C2CCC2)CC12CCN(C(=O)Cc1ccsc1)CC2 (stereo unspecified) | 608 |
| Cc1ccccc1N1CCN(C(=O)C2=CCN(Cc3cccc(F)c3)CC2)CC1 | 712 |
| Cc1nnc(SCC(=O)N2CCN(c3nnnn3-c3ccccc3)CC2)s1 | 653 |
| Cn1c(-c2cccc(C(=O)N3CCN(c4ccccc4)CC3)c2)nc2cccnc21 | 736 |
| Clc1ccc(Cl)c(-c2ccc(CNCc3ccco3)o2)c1 | 737 |
| COc1ccc(S(=O)(=O)NCc2ccc3c(c2)CCN3C(=O)c2ccc(F)cc2)cc1 | 927 |
| Cc1noc([C@@H]2CC(F)(F)CN2C(=O)c2nccn2C)n1 | 701 |
| CC(C)c1nnc2n1C(C(=O)NCC(F)F)CCCC2 (stereo unspecified) | 580 |
| CCc1c(C(=O)O)nnn1-c1ccc(C(F)(F)F)cc1 | 800 |
| CCN1C(=O)CN(C(=O)c2ccco2)CC12CCOCC2 | 610 |
| O=c1cc(CSc2nc(NCc3ccc4c(c3)OCO4)c3ccccc3n2)nc2ccccn12 | 635 |
| CCN1CCCn2cc(S(=O)(=O)N3CCCCCC3)cc2C1=O | 747 |
| Cc1nc2ccn(Cc3cccnc3)c(=O)c2cc1C(=O)NCCCc1ccco1 | 625 |

| Compound | RP-LC retention time [s] |
| --- | --- |
| CCOC(=O)C1CCN(C(=O)CN2CCN(Cc3ccc(C)cc3)C(=O)C2=O)CC1 | 710 |
| O=C(CN1C(=O)CCc2cc(Br)ccc21)N1CCN(c2ncccn2)CC1 | 786 |
| CCc1ccc(C(=O)c2cnc3ccc(OC)cc3c2N2CCN(C)CC2)cc1 | 614 |
| CCc1cccc(NC(=O)Cn2nc3cc(C)nc(Nc4ccccc4C)n3c2=O)c1 | 711 |
| CCOc1ccccc1NC(=O)N1CCN(c2cnn3c(C)nnc3c2)CC1 | 658 |
| c1ccc2nc(OCCN3CC3)ccc2c1 | 727 |
| CC(=O)Nc1ccc(CCc2nc3ccc(C(=O)NC(C)CCc4ccccc4)cc3[nH]2)cc1 (stereo unspecified) | 682 |
| CC1(C)C2CCC(CN=C(N)CSS(=O)(=O)O)C1C2 (stereo unspecified) | 738 |
| CC(=O)Oc1cccc(C2C3=C(CC(C)(C)CC3=O)Nc3ccccc3N2C(C)=O)c1 (stereo unspecified) | 735 |
| O=C(CC1CCN(C(=O)Nc2ccc3c(c2)OCO3)CC1)N1CCCCC1 | 712 |
| Cc1cc(N2CCC(NC(=O)Nc3cc(F)cc(F)c3)C2=O)ccc1F (stereo unspecified) | 931 |
| CCn1cc(CCN2CCC(C(=O)N(C)C)CC2)c2cccnc21 | 566 |
| O=C1NC(C(=O)NC2CCCCC2)Cn2cccc21 (stereo unspecified) | 651 |
| CCC(C(=O)NCc1ccccn1)n1c2ccccc2c2cnn(C)c(=O)c21 (stereo unspecified) | 634 |
| Cc1ccccc1NC(=O)Nc1ccc2c(c1)CCN2S(=O)(=O)c1ccccc1 | 969 |
| CCCCNc1cc(Cl)nc(N)n1 | 690 |
| O=C(c1ccc2c(c1)OCO2)N(c1ccc(Br)cc1)C1C=CS(=O)(=O)C1 (stereo unspecified) | 779 |
| O=C(NCC(c1cccnc1)N1CCN(Cc2ccccc2)CC1)Nc1ccccc1Cl (stereo unspecified) | 554 |
